Results as given in publication PMC4775225, “Bromodomain inhibition of the transcriptional coactivators CBP/EP300 as a therapeutic strategy to target the IRF4 network in multiple myeloma” (eLife, 2016).

Tests used:
[1] = target: T1, first bromodomain of BRD4 (BRD4-BD1) (Homo sapiens, UniProt O60885); experiment: AlphaLISA, acetylated peptide binding to BRD4-BD1; settings: BRD4-BD1, H4-TetraAc-biotin peptide; n ≥ 2 independent replicates
T1 construct: the first bromodomain of BRD4 (BRD4-BD1)
Experimental: (§1) Compound at varying concentrations were dispensed into 384 well Proxiplates (Perkin Elmer) using Echo technology (Labcyte, Inc.; Sunnyvale, CA). For CBP assays, 0.5 μM His-Flag-tagged CBP bromodomain (amino acids 1082–1197) was incubated with 0.003 μM H4-TetraAc-biotin for 20 min at room temperature in 1x reaction buffer (50 mM HEPES pH 7.5, 1 mM TCEP, 0.069 mM Brij-35, 150 mM NaCl, and 0.1 mg/ml BSA). Streptavidin acceptor beads and nickel donor beads (Perkin Elmer) were added to 15 μg/ml with a Combi Multidrop dispenser. Plates were sealed and incubated at 90 min in the dark at room temperature, and plates were read on an Envision plate reader (Perkin Elmer) according to manufacturer’s instructions. For the BET assays, the protocol was similar except that BET family bromodomains were used at 0.03 μM (BRD4-BD1) and incubated with 0.2 μM H4-TetraAc-biotin for 20 min in reaction buffer (40 mM HEPES pH7.0, 1 mM DTT, 0.069 mM Brij-35, 40 mM NaCl, and 0.1 mg/ml BSA). Streptavidin donor beads and Anti-Flag Acceptor beads (Perkin Elmer) were added to 10 μg/ml, and then plates were sealed and incubated in the dark for 60 min prior to reading on the Envision.

[2] = target: T2, CBP bromodomain (amino acids 1082–1197) (Homo sapiens, UniProt Q92793); experiment: AlphaLISA, acetylated peptide binding to CBP bromodomain; settings: isolated CBP bromodomain, H4-TetraAc-biotin peptide; n ≥ 2 independent replicates
T2 construct: His-Flag-tagged CBP bromodomain (amino acids 1082–1197)
Experimental: as §1

[3] = target: T3, full length BRD4 ZsGreen fusion protein (Homo sapiens, UniProt O60885); experiment: Bromodomain chromatin release assay, BRD4 (U2OS, high content imaging); assay type: cell-based; settings: 2 hr, n = 2 biological replicates ± SEM, read-out: IC50 (μM), BRD4 chromatin release (EC50)
T3 construct: CBP: CBP-bromodomain/BRD9; BRD4: full length BRD4; expressed in transfected cells
Experimental: As described previously ([Huang et al., 2014]), this assay monitors the compound-dependent release and aggregation of a fusion protein consisting of a bromodomain and the fluorescent protein ZsGreen. For the BRD4 chromatin release assay, U2OS cells capable of inducibly expressing the full-length BRD4 protein in fusion with ZsG were generated using the pLVT3G/ZsGreen-BRD4/TO3G vector and maintained in blasticidin at 15 μg/ml. […] Therefore, the bromodomain (BD) of CBP was cloned into full length BRD9 (replacing the BRD9 BD) in frame with a ZsGreen fluorescent tag (ZsG). U2OS cells capable of inducibly expressing the ZsGreen-CBPBD fusion protein were generated by lentiviral delivery of the pLVT3G/BRD9-ZsG-CBPBD/TO3G vector, which contains both the inducible fusion protein and the tet transactivator. Cells were selected and maintained in the presence of 15 μg/ml blasticidin. 5000 cells/well were seeded in 384-well imaging plates in the presence of 2 μg/ml doxycycline to induce the expression of ZsG-fusion proteins. After 16 hr of incubation with doxycycline, fresh media containing serial dilution of compounds were added to the cells for 2 hr at 37°C. Cells were fixed with 4% paraformaldehyde (PFA) dissolved in PBS for 15 min at room temperature. Images of cells were acquired using ImageXpress Micro (Molecular Devices, Inc.; Sunnyvale, CA) and processed with the Transfluor Module of MetaXpress software. Average pits per cell values were obtained from four adjacent images in each well with two technical replicates for each compound concentration. Dose-response curves were generated by plotting the average pits per cell values at each dose and EC50 values were calculated by a four-parameter non-linear regression model in GraphPad Prism.

[4] = target: T4, CBP bromodomain and histone H3.3 (Homo sapiens, UniProt Q92793); experiment: NanoBRET, CBP bromodomain/histone H3.3 in HEK293 cells; assay type: cell-based; settings: NanoBRET, 293 cells
T4 construct: NanoBRET with the isolated CBP bromodomain and histone H3.3 in 293 cells; host or cells: HEK293
Experimental: NanoBRET was carried out using the NanoBRET Protein:Protein Interaction System (Promega, Inc.; Madison, WI) according to the manufacturer’s instructions. Briefly, HEK293 cells were transiently co-transfected with a vector for histone H3.3-HaloTag and a NanoLuc tagged CBP bromodomain expression construct. Transfected cells were plated in 96 -well plates in the presence or absence of ligand, then treated with dose titrations of indicated compounds. Readings were performed on an Envision Plate Reader (Perkin Elmer, Inc.; Waltham, MA) and BRET readings were calculated by dividing the acceptor emission value (600 nm) by the donor emission value (460/50 nm).

T2 sequence (Q92793 1082-1197): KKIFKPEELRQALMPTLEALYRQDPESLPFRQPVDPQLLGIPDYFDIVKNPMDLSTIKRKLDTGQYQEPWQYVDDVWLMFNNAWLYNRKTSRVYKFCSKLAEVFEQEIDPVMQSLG
T4 sequence (Q92793 1085-1192 limits assumed): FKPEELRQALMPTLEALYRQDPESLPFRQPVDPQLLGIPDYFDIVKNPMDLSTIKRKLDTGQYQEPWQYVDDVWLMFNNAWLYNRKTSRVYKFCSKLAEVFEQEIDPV

Cc1sc2c(c1C)C(c1ccc(Cl)cc1)=N[C@@H](CC(N)=O)c1nnc(C)n1-2 [CPI203]
IC50 [1]: 50 ± 10 nM
IC50 [2]: 6500 ± 640 nM
EC50 [3]: 0.05 ± 0.02 µM
dose-dependent inhibition of CBP-H3.3 binding [4]: did not display dose-dependent inhibition
